18 compounds from US4066772A, “1,3-Dihydro-1-[3-(1-piperidinyl)propyl]-2H-benzimidazol-2-ones and related compounds” (Janssen Pharmaceutica N.V., priority 1976, dated 1978) can be followed below.

In one assay the test system is apomorphine-induced vomiting in dogs. Kind of assay: Apomorphine-induced vomiting test in dogs (antiemetic activity, subcutaneous). It is filed as in vivo, beagle dogs. As to conditions: Canis lupus familiaris, sc, 1 h, read-out: ED50 (dose which protects 50% of the animals from emesis), Table I.
In the case of `Cn1c(=O)n(CCCN2CCC3(CC2)C(=O)NCN3c2ccccc2)c2ccccc21` [L=CH3, R1=H, R4=H, R5=H, 8-[3-(1,3-dihydro-3-methyl-2-oxo-2H-benzimidazol-1-yl)propyl]-1-phenyl-1,3,8-triazaspiro[4,5]-decan-4-one], the ED50 was determined as 0.08 mg/kg.

Take `O=C1NCN(c2ccccc2)C12CCN(CCCn1c(=O)[nH]c3cc(Cl)ccc31)CC2` [L=H, R1=5-Cl, R4=H, R5=H, 8-[3-(5-chloro-1,3-dihydro-2-oxo-2H-benzimidazol-1-yl)propyl]-1-phenyl-1,3,8-triazaspiro[4,5]decan-4-one]: the 50% effective dose (ED50) stood at 0.05 mg/kg.

With `O=C1NCN(c2ccc(F)cc2)C12CCN(CCCn1c(=O)[nH]c3cc(Cl)ccc31)CC2` [L=H, R1=5-Cl, R4=H, R5=4-F, 8-[3-(5-chloro-1,3-dihydro-2-oxo-2H-benzimidazol-1-yl)propyl]-1-(4-fluorophenyl)-1,3,8-triazaspiro[4,5]decan-4-one], the median effective dose (ED50) was found to be 0.015 mg/kg.

Regarding `O=C1NCN(c2cccc(C(F)(F)F)c2)C12CCN(CCCn1c(=O)[nH]c3ccccc31)CC2` [L=H, R1=H, R4=H, R5=3-CF3, 8-[3-(2,3-dihydro-2-oxo-1H-benzimidazol-1-yl)propyl]-1-[3-(trifluoromethyl)phenyl]-1,3,8-triazaspiro[4,5]decan-4-one], the ED50 turned out to be 0.025 mg/kg.

As to `CN1CN(c2ccccc2)C2(CCN(CCCn3c(=O)[nH]c4ccccc43)CC2)C1=O` [L=H, R1=H, R4=CH3, R5=H, 8-[3-(1,3-dihydro-2-oxo-2H-benzimidazol-1-yl)propyl]-3-methyl-1-phenyl-1,3,8-triazaspiro[4,5]decan-4-one], the ED50 came to 0.015 mg/kg.

As for `Cc1ccc2c(c1)[nH]c(=O)n2CCCN1CCC2(CC1)C(=O)NCN2c1ccccc1` [L=H, R1=5-CH3, R4=H, R5=H, 8-[3-(1,3-dihydro-5-methyl-2-oxo-2H-benzimidazol-1-yl)propyl]-1-phenyl-1,3,8-triazaspiro[4,5]decan-4-one], the median effective dose (ED50) was found to be 0.06 mg/kg.

For the compound `C=CCn1c(=O)n(CCCN2CCC3(CC2)C(=O)NCN3c2ccccc2)c2ccccc21` [L=CH2CHCH2, R1=H, R4=H, R5=H, 8-{3-[1,3-dihydro-2-oxo-3-(2-propenyl)-2H-benzimidazol-1-yl]propyl}-1-phenyl-1,3,8-triazaspiro[4,5]decan-4-one], the ED50 stood at 0.25 mg/kg.

As to `O=C1NCN(c2ccccc2)C12CCN(CCCn1c(=O)[nH]c3ccccc31)CC2` [L=H, R1=H, R4=H, R5=H, 8-[3-(1,3-dihydro-2-oxo-2H-benzimidazol-1-yl)propyl]-1-phenyl-1,3,8-triazaspiro[4,5]decan-4-one], the ED50 is 0.03 mg/kg.

Turning to `O=C1NCN(c2ccc(F)cc2)C12CCN(CCCn1c(=O)[nH]c3ccccc31)CC2` [L=H, R1=H, R4=H, R5=4-F], the ED50 came out at 0.04 mg/kg.

The same assay, now with this note: Canis lupus familiaris, sc, 1 h, read-out: ED50 (dose which protects 50% of the animals from emesis), Table II.
Turning to `O=c1[nH]c2ccccc2n1CCCN1CCC(n2c(=O)[nH]c3cc(Cl)ccc32)CC1` [5-chloro-1-{1-[3-(1,3-dihydro-2-oxo-2H-benzimidazol-1-yl)propyl]-4-piperidinyl}-1,3-dihydro-2H-benzimidazol-2-one], the ED50 stood at 0.01 mg/kg.

The assay is the same for the next values; noted with them: Canis lupus familiaris, sc, 1 h, read-out: ED50 (dose which protects 50% of the animals from emesis), Table III.
Turning to `C=CCn1c(=O)n(CCCN2CCC(O)(c3ccc(Cl)cc3)CC2)c2ccccc21` [L=CH2CHCH2, R8=4-Cl, R9=H, 1-{3-[4-(4-chlorophenyl) 4-hydroxy-1-piperidinyl]propyl}-1,3-dihydro-3-(2-propenyl)-2-H-benzimidazol-2-one], the median effective dose (ED50) was found to be 0.5 mg/kg.

`O=c1[nH]c2ccccc2n1CCCN1CCC(O)(c2ccc(Cl)cc2)CC1` [L=H, R8=4-Cl, R9=H, 1-{3-[4-(4-chlorophenyl)-4-hydroxy-1-piperidinyl]-propyl}-1,3-dihydro-2H-benzimidazol-2-one]: the ED50 came out at 0.06 mg/kg.

For the compound `O=c1[nH]c2ccccc2n1CCCN1CCC(O)(c2ccc(Cl)c(C(F)(F)F)c2)CC1` [L=H, R8=4-Cl, R9=3-CF3, 1-[3-{4-[4-chloro-3-(trifluoromethyl)phenyl]-4-hydroxy-1-piperidinyl}propyl]-1,3-dihydro-2H-benzimidazol-2-one], the 50% effective dose (ED50) was found to be 0.015 mg/kg.

The same assay, now with this note: Canis lupus familiaris, sc, 1 h, read-out: ED50 (dose which protects 50% of the animals from emesis), Table IV.
With `O=C1NCN(c2ccccc2)C12CCN(CCCn1cnc3ccccc31)CC2`, the ED50 turned out to be 0.25 mg/kg.

Staying with this assay, now noted: Canis lupus familiaris, sc, beagle dogs, apomorphine 0.31 mg/kg s.c. 1 hour after compound; read-out: ED50 (dose which protects 50% of the animals from emesis), Table II.
For `O=c1[nH]c2ccccc2n1CCCN1CC=C(n2c(=O)[nH]c3ccccc32)CC1` [L=H, R1=H, R2=H, R3=H, ring drawing 47, R7=H, 1-{3-[3,6-dihydro-4-(1,3-dihydro-2-oxo-2H-benzimidazol-1-yl)-1-(2H)-pyridinyl]propyl}-1,3-dihydro-2H-benzimidazol-2-one], the ED50 came out at 0.04 mg/kg.

The same assay, now with this note: Canis lupus familiaris, sc, beagle dogs, apomorphine 0.31 mg/kg s.c. 1 hour after compound; read-out: ED50 (dose which protects 50% of the animals from emesis), Table IV.
For `O=c1[nH]c2ccccc2n1CCCN1CCC(n2c(=S)[nH]c3ccccc32)CC1`, the ED50 is 0.025 mg/kg.

As for `O=c1[nH]c2cc(Cl)ccc2n1C1CCN(CCCn2c(=S)[nH]c3ccccc32)CC1`, the median effective dose (ED50) was found to be 0.004 mg/kg.

Consider `O=c1[nH]c2ccccc2n1CCCN1CCC(n2c(=S)[nH]c3cc(Cl)ccc32)CC1`, for which the 50% effective dose (ED50) stood at 0.004 mg/kg.

As a reminder, the ED50 is the midpoint of the dose-response relation.
